The values below are quoted from earlier work in article PMC8672822 (RSC Medicinal Chemistry, 2021).

Read-outs that look alike come from different tables or passages of the source.

For orientation: IC50 means the midpoint of a concentration-inhibition curve. The Ki is the equilibrium dissociation constant of an inhibitor or competing ligand from its target. As a reminder, the Kd is the concentration at which binding is half-saturated.

The subject of series [1] is macrophage.
Series [2] relates to DC-SIGN+ cells.
The conditions of series [3]: in comparison to Man-α-1,2-Man.
Series [4] relates to DC-SIGN. The conditions noted are these: relative to plate assay.
Series [5] concerns DC-SIGN.
Series [6] addresses bovine Mincle.
The subject of series [7] is murine Mincle. To be noted: murine isoform.
Series [8] deals with human Mincle. The conditions noted are these: human isoform.
Series [9] concerns peripheral blood mononuclear cells (PBMCs) or bone marrow-derived macrophages (BMDM).
The target of series [10] is DC-SIGN. To be noted: SPR direct.
Series [11] deals with DC-SIGN. To be noted: ITC.
Series [12] deals with Langerin.
The subject of series [13] is Langerin. This is another data set of the same source.
Series [14] concerns DC-SIGN. The conditions noted are these: SPR competition.
The subject of series [15] is DC-SIGN. To be noted: monovalent.

As for `NC(=O)c1ccc(CCCC2Nc3ccc(C(=O)N4CCN(c5ncccn5)CC4)cc3NC2=O)cc1` (stereo not shown) [compound 35], the aqueous solubility result is reported as “improved aqueous solubility”.
Regarding `OC[C@H]1O[C@H](O[C@H]2O[C@H](CO)[C@@H](O)[C@H](O)[C@H]2O)[C@H](O)[C@@H](O)[C@@H]1O` [trehalose], the macrophage activation result in [1] is listed as “no effect”.
As for `COC(=O)[C@H]1C[C@H](OCCN)[C@@H](O[C@H]2O[C@H](CO)[C@@H](O)[C@H](O)[C@@H]2O)C[C@@H]1C(=O)OC` [compound 24], the “activity in comparison to Man-α-1,2-Man” value in series [2] is on record as “three times more active”. In addition, the “resistance towards enzymatic digestion” value in series [3] was “more resistant”.
Consider `CC(C)OC(=O)c1ccc(-c2ccc(/C=C3\C(=O)N(c4ccc(S(N)(=O)=O)cc4)N=C3C(F)(F)F)o2)cc1` [compound 33], for which, in series [4], the “decrease in affinity in cellular assay” value is on record as “up to 100 fold”.
For the molecule `[N-]=[N+]=NCCO[C@H]1C[C@H](C(=O)NCc2ccc(CO)cc2)[C@@H](C(=O)NCc2ccc(CO)cc2)C[C@@H]1O[C@H]1O[C@H](CO)[C@@H](O)[C@H](O)[C@@H]1O` [compound 25], the IC50 in series [5] (SPR competition) was 300 µM.
Turning to `Cc1cc(O)cc(O)c1C(=O)OC[C@H]1O[C@H](O[C@H]2O[C@H](COC(=O)c3c(C)cc(O)cc3O)[C@@H](O)[C@H](O)[C@H]2O)[C@H](O)[C@@H](O)[C@@H]1O` [compound 3, brartemicin], the Ki in series [6] is 5.5 µM. The binding entry in [7] and in [8] was “no binding” throughout. Further, the Mincle-induced immune activation result in series [9] was “no or a less effective Mincle-induced immune activation”.
As for `NCc1cn([C@@H]2[C@@H](O[C@H]3C[C@H](C(=O)NCc4ccc(CO)cc4)[C@@H](C(=O)NCc4ccc(CO)cc4)C[C@@H]3OCCCl)O[C@H](CO)[C@@H](O)[C@@H]2O)nn1` [compound 27], the IC50 in series [5] (SPR competitive) is 76 µM. For the same molecule, the dissociation constant Kd in series [10] was 53 µM; in series [11], 52 µM. The “selectivity for DC-SIGN over Langerin” value in [12] is listed as “full selectivity against Langerin”.
On to `CC(=O)NCCO[C@@H]1O[C@H](CO)[C@@H](O)[C@H](O)[C@H]1NS(=O)(=O)c1ccc(C)cc1` [compound 19], for which the “increase in binding affinity compared to the reference N-acetyl glucosamine” value in series [13] is reported as 13 fold.
For the molecule 2-C-aminomethyl-D-mannose [compound 21], the IC50 in series [14] was 350 µM.
As for `[N-]=[N+]=NCCO[C@H]1C[C@H](C(=O)NCc2ccc(CO)cc2)[C@@H](C(=O)NCc2ccc(CO)cc2)C[C@@H]1O[C@H]1O[C@H](CN)[C@@H](O)[C@H](O)[C@@H]1O` [compound 26], in series [5] (SPR competitive), the IC50 is 254 µM. For the same molecule, the figures for the Kd in series [10] and in series [11] were 310 µM and 171 µM, respectively. Further, the “selectivity for DC-SIGN over Langerin” value in series [12] is on record as “fully selective for DC-SIGN over Langerin”.
In the case of `NS(=O)(=O)c1ccc(CCCC2Nc3ccc(C(=O)N4CCN(c5ccncc5)CC4)cc3NC2=O)cc1` (stereo not shown) [compound 36], the aqueous solubility entry was “improved aqueous solubility”.
For `NC(=O)[C@H](CCC(=O)O)NC(=O)[C@H]1C[C@@H](O)[C@H](O)[C@H](O)[C@H]1SCCCCSCc1cccc(F)c1` [compound 22], in series [15], the IC50 was 3.2 mM.
